Measured values: patent US20100074939A1 (OsteoGeneX Inc., priority 2008, published 2010)
Structures can show the parent of a compound that is named as a salt.

Legend:
mouse = assay: Bone formation in treated vs control mice by micro-CT (Example 1); format: in vivo; conditions: test vs control solution, after complete dosing schedule
From the text: Compounds useful in the methods of the present invention can be identified via a variety of methods known to one of skill in the art. Several exemplary methods for identifying such antagonists are described herein, including cell-based and in vitro techniques (Journal of Bone and Mineral Research 2006, 21(11), 1738-1749). A general method of identifying SOST antagonists involves evaluating the effects of antagonist candidates on bone formation under controlled conditions. Preferably bone formation is determined using micro-CT techniques on live animals. Preferred animals include rodents, more preferred are primates. Femur, tibia and vertebrae bones are particularly useful subjects for such study.
Briefly, the test animal is treated with a predetermined dose of a SOST antagonist candidate. […]
Once the dosing schedule has been completed, both test and control animals are examined to determine the quantity of bone formation present. […] Where necessary, levels of bone formation can be calculated by determining the volume of bone formation present in each animal. […]
For example, the mouse test animal is treated with a predetermined dose of a SOST antagonist candidate for a complete dosing schedule. […] Once the dosing schedule has been completed, both test and control animals are examined with sacrifice using micro-CT to determine the quantity of bone formation present.

C57BL/6 mice [1] = assay: Lumbar vertebra L5 bone volume by DEXA Piximus, 30-day i.p. study; format: in vivo, mouse; conditions: measured by DEXA Piximus; male C57BL/6 mice, daily i.p. 30 days; dose not stated
Description: (§1) Four month old male C57BL/6 mice were treated daily with saline vehicle or the sclerostin inhibitor of harmine hydrochloride at 20 (“L”), 40 (“M”) or 90 (“H”) mg/kg (via i.p) for 30 days. Study endpoints included measurement of femur bone volume by pQCT analysis (FIG. 2), and a biochemical marker of bone formation, osteocalcin, measured by EIA Elisa (FIG. 3). […] Lumbar vertebra L5 bone volume increased 2% over saline baseline, as measured by uCT, and 73%, as measured by DEXA Piximus.

C57BL/6 mice [2] = assay: Lumbar vertebra L5 bone volume by uCT, 30-day i.p. study; format: in vivo, mouse; conditions: measured by uCT; male C57BL/6 mice, daily i.p. 30 days; dose not stated
Description: as §1

C57BL/6 mice [3] = assay: Femur bone density/volume by pQCT, 30-day i.p. study (FIG. 2); format: in vivo, mouse; conditions: male C57BL/6 mice, daily i.p. 30 days, 40 mg/kg
Description: as §1

C57BL/6 mice [4] = assay: Serum osteocalcin bone formation marker by EIA Elisa, 30-day i.p. study (FIG. 3); format: in vivo, mouse; conditions: male C57BL/6 mice, 40 mg/kg daily i.p. 30 days
Description: as §1

Wnt pathway = Wnt pathway modulation to promote bone growth (FIG. 1); conditions: doses of 2.5 ng (low), 60 ng (medium), 125 ng (high)
Description: For example, the mouse test animal is treated with a predetermined dose of a SOST antagonist candidate for a complete dosing schedule. A control mouse is treated with a control solution, preferably a non-irritating buffer solution or other carrier. Once the dosing schedule has been completed, both test and control animals are examined with sacrifice using micro-CT to determine the quantity of bone formation present.

COc1ccc2c(c1)[nH]c1c(C)nccc12 [harmine hydrochloride]
bone growth (quantity of bone formation by micro-CT) (mouse): promoting bone growth | Lumbar vertebra L5 bone volume increase over saline baseline (C57BL/6 mice [1]): 73% | Lumbar vertebra L5 bone volume increase over saline baseline (C57BL/6 mice [2]): 2% | increase over baseline for femur bone density (C57BL/6 mice [3]): 13% | percent increase in serum osteocalcin bone formation marker over saline controls (C57BL/6 mice [4]): 65% | modulation of the Wnt pathway to promote bone growth (Wnt pathway): modulating the Wnt pathway to promote bone growth
